Laboratory results as given in patent US6525001B1, “Substituted pyrimidine and pyridine herbicides” (Mid-American Commercialization Corporation, priority 1997, dated 2003).

What was measured:
Assay in all cases: Test B pre-/postemergence
Format in all cases: in vivo
Parameters in all cases: key: 0 is no effect; 10 is complete control
corn (Zea mays) = system: corn (Zea mays)
How it was run: (§1)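 Response scores run from 0, meaning no effect, to 10, meaning complete control, assigned by eye relative to controls twelve to sixteen days after spraying. Treatment was both preemergence on planted seed and postemergence on plants at the 1- to 4-leaf stage.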

[1] = system: crabgrass (Digitaria sanguinalis)
How it was run: as §1

[2] = system: wheat (Triticum aestivum)
How it was run: as §1

[3] = system: broadleaf signalgrass (Brachiaria decumbens)
How it was run: as §1

[4] = system: velvetleaf (Abutilon theophrasti)
How it was run: as §1

[5] = system: sugar beet (Beta vulgaris)
How it was run: as §1

[6] = system: giant foxtail (Setaria faberii)
How it was run: as §1

soybean (Glycine max) = system: soybean (Glycine max)
How it was run: as §1

[7] = system: cocklebur (Xanthium strumarium)
How it was run: as §1

[8] = system: pigweed (Amaranthus retroflexus)
How it was run: as §1

[9] = system: bedstraw (Galium aparine)
How it was run: as §1

[10] = system: blackgrass (Alopecurus myosuroides)
How it was run: as §1

rape (Brassica napus) = system: rape (Brassica napus)
How it was run: as §1

[11] = system: momingglory (Ipomoea hederacea)
How it was run: as §1

[12] = Preemergence, Rate 62 g/ha, scale of 0 to 10

Cc1cnc(-c2ccc(C(F)(F)F)cc2)nc1C(=O)c1ccc(C(F)(F)F)cc1 [Compound 74]
Plant response rating, Corn (corn (Zea mays); [12]): 0
Corn plant response rating (corn (Zea mays); Rate 62 g/ha, Postemergence): 1
Corn plant response rating (corn (Zea mays); Rate 125 g/ha, Postemergence): 1
Plant response rating, Corn (corn (Zea mays); Rate 125 g/ha, Preemergence): 0
Plant response rating, Corn (corn (Zea mays); Rate 250 g/ha, Postemergence): 1
Plant response rating, Corn (corn (Zea mays); Rate 250 g/ha, Preemergence): 0
Plant response rating, Corn (corn (Zea mays); Rate 500 g/ha, Postemergence): 1
Plant response rating, Corn (corn (Zea mays); Rate 500 g/ha, Preemergence): 0
Plant response rating, Crabgrass [1, 12]: 0
Crabgrass plant response rating ([1]; Rate 62 g/ha, Postemergence): 0
Crabgrass plant response rating ([1]; Rate 125 g/ha, Postemergence): 0
Plant response rating, Crabgrass ([1]; Rate 125 g/ha, Preemergence): 0
Plant response rating, Crabgrass ([1]; Rate 250 g/ha, Postemergence): 1
Plant response rating, Crabgrass ([1]; Rate 250 g/ha, Preemergence): 0
Plant response rating, Crabgrass ([1]; Rate 500 g/ha, Postemergence): 3
Plant response rating, Crabgrass ([1]; Rate 500 g/ha, Preemergence): 1
Plant response rating, Wheat [2, 12]: 0
Wheat plant response rating ([2]; Rate 62 g/ha, Postemergence): 1
Wheat plant response rating ([2]; Rate 125 g/ha, Postemergence): 1
Plant response rating, Wheat ([2]; Rate 125 g/ha, Preemergence): 0
Plant response rating, Wheat ([2]; Rate 250 g/ha, Postemergence): 1
Plant response rating, Wheat ([2]; Rate 250 g/ha, Preemergence): 0
Plant response rating, Wheat ([2]; Rate 500 g/ha, Postemergence): 2
Plant response rating, Wheat ([2]; Rate 500 g/ha, Preemergence): 0
B. signalgrass plant response rating ([3]; Rate 62 g/ha, Postemergence): 1
B. signalgrass plant response rating ([3]; Rate 62 g/ha, Preemergence): 0
B. signalgrass plant response rating ([3]; Rate 125 g/ha, Postemergence): 1
Plant response rating, B. signalgrass ([3]; Rate 125 g/ha, Preemergence): 0
Plant response rating, B. signalgrass ([3]; Rate 250 g/ha, Postemergence): 1
Plant response rating, B. signalgrass ([3]; Rate 250 g/ha, Preemergence): 0
Plant response rating, B. signalgrass ([3]; Rate 500 g/ha, Postemergence): 2
Plant response rating, B. signalgrass ([3]; Rate 500 g/ha, Preemergence): 0
Plant response rating, Velvetleaf [4, 12]: 0
Velvetleaf plant response rating ([4]; Rate 62 g/ha, Postemergence): 1
Velvetleaf plant response rating ([4]; Rate 125 g/ha, Postemergence): 1
Plant response rating, Velvetleaf ([4]; Rate 125 g/ha, Preemergence): 0
Plant response rating, Velvetleaf ([4]; Rate 250 g/ha, Postemergence): 2
Plant response rating, Velvetleaf ([4]; Rate 250 g/ha, Preemergence): 0
Plant response rating, Velvetleaf ([4]; Rate 500 g/ha, Postemergence): 2
Plant response rating, Velvetleaf ([4]; Rate 500 g/ha, Preemergence): 0
Plant response rating, Sugarbeets [5, 12]: 0
Sugarbeets plant response rating ([5]; Rate 62 g/ha, Postemergence): 1
Sugarbeets plant response rating ([5]; Rate 125 g/ha, Postemergence): 2
Plant response rating, Sugarbeets ([5]; Rate 125 g/ha, Preemergence): 0
Plant response rating, Sugarbeets ([5]; Rate 250 g/ha, Postemergence): 6
Plant response rating, Sugarbeets ([5]; Rate 250 g/ha, Preemergence): 0
Plant response rating, Sugarbeets ([5]; Rate 500 g/ha, Postemergence): 7
Plant response rating, Sugarbeets ([5]; Rate 500 g/ha, Preemergence): 0
Plant response rating, Giant foxtail [6, 12]: 0
Giant foxtail plant response rating ([6]; Rate 62 g/ha, Postemergence): 0
Giant foxtail plant response rating ([6]; Rate 125 g/ha, Postemergence): 0
Plant response rating, Giant foxtail ([6]; Rate 125 g/ha, Preemergence): 0
Plant response rating, Giant foxtail ([6]; Rate 250 g/ha, Postemergence): 1
Plant response rating, Giant foxtail ([6]; Rate 250 g/ha, Preemergence): 0
Plant response rating, Giant foxtail ([6]; Rate 500 g/ha, Postemergence): 1
Plant response rating, Giant foxtail ([6]; Rate 500 g/ha, Preemergence): 0
Plant response rating, Soybean (soybean (Glycine max); [12]): 0
Soybean plant response rating (soybean (Glycine max); Rate 62 g/ha, Postemergence): 2
Soybean plant response rating (soybean (Glycine max); Rate 125 g/ha, Postemergence): 2
Plant response rating, Soybean (soybean (Glycine max); Rate 125 g/ha, Preemergence): 0
Plant response rating, Soybean (soybean (Glycine max); Rate 250 g/ha, Postemergence): 2
Plant response rating, Soybean (soybean (Glycine max); Rate 250 g/ha, Preemergence): 0
Plant response rating, Soybean (soybean (Glycine max); Rate 500 g/ha, Postemergence): 3
Plant response rating, Soybean (soybean (Glycine max); Rate 500 g/ha, Preemergence): 0
Plant response rating, Cocklebur [7, 12]: 0
Cocklebur plant response rating ([7]; Rate 62 g/ha, Postemergence): 1
Cocklebur plant response rating ([7]; Rate 125 g/ha, Postemergence): 5
Plant response rating, Cocklebur ([7]; Rate 125 g/ha, Preemergence): 0
Plant response rating, Cocklebur ([7]; Rate 250 g/ha, Postemergence): 5
Plant response rating, Cocklebur ([7]; Rate 250 g/ha, Preemergence): 0
Plant response rating, Cocklebur ([7]; Rate 500 g/ha, Postemergence): 5
Plant response rating, Cocklebur ([7]; Rate 500 g/ha, Preemergence): 0
Plant response rating, Redroot pigweed [8, 12]: 0
Redroot pigweed plant response rating ([8]; Rate 62 g/ha, Postemergence): 2
Redroot pigweed plant response rating ([8]; Rate 125 g/ha, Postemergence): 2
Plant response rating, Redroot pigweed ([8]; Rate 125 g/ha, Preemergence): 0
Plant response rating, Redroot pigweed ([8]; Rate 250 g/ha, Postemergence): 8
Plant response rating, Redroot pigweed ([8]; Rate 250 g/ha, Preemergence): 0
Plant response rating, Redroot pigweed ([8]; Rate 500 g/ha, Postemergence): 8
Plant response rating, Redroot pigweed ([8]; Rate 500 g/ha, Preemergence): 0
Plant response rating, Bedstraw [9, 12]: 0
Bedstraw plant response rating ([9]; Rate 62 g/ha, Postemergence): 1
Bedstraw plant response rating ([9]; Rate 125 g/ha, Postemergence): 1
Plant response rating, Bedstraw ([9]; Rate 125 g/ha, Preemergence): 0
Plant response rating, Bedstraw ([9]; Rate 250 g/ha, Postemergence): 2
Plant response rating, Bedstraw ([9]; Rate 250 g/ha, Preemergence): 0
Plant response rating, Bedstraw ([9]; Rate 500 g/ha, Postemergence): 6
Plant response rating, Bedstraw ([9]; Rate 500 g/ha, Preemergence): 0
Plant response rating, Blackgrass [10, 12]: 0
Blackgrass plant response rating ([10]; Rate 62 g/ha, Postemergence): 0
Blackgrass plant response rating ([10]; Rate 125 g/ha, Postemergence): 0
Plant response rating, Blackgrass ([10]; Rate 125 g/ha, Preemergence): 0
Plant response rating, Blackgrass ([10]; Rate 250 g/ha, Postemergence): 0
Plant response rating, Blackgrass ([10]; Rate 250 g/ha, Preemergence): 0
Plant response rating, Blackgrass ([10]; Rate 500 g/ha, Postemergence): 1
Plant response rating, Blackgrass ([10]; Rate 500 g/ha, Preemergence): 0
Plant response rating, Rape (rape (Brassica napus); [12]): 0
Rape plant response rating (rape (Brassica napus); Rate 62 g/ha, Postemergence): 1
Rape plant response rating (rape (Brassica napus); Rate 125 g/ha, Postemergence): 1
Plant response rating, Rape (rape (Brassica napus); Rate 125 g/ha, Preemergence): 0
Plant response rating, Rape (rape (Brassica napus); Rate 250 g/ha, Postemergence): 1
Plant response rating, Rape (rape (Brassica napus); Rate 250 g/ha, Preemergence): 0
Plant response rating, Rape (rape (Brassica napus); Rate 500 g/ha, Postemergence): 3
Plant response rating, Rape (rape (Brassica napus); Rate 500 g/ha, Preemergence): 0
Plant response rating, Morningglory [11, 12]: 0
Morningglory plant response rating ([11]; Rate 62 g/ha, Postemergence): 1
Morningglory plant response rating ([11]; Rate 125 g/ha, Postemergence): 1
Plant response rating, Morningglory ([11]; Rate 125 g/ha, Preemergence): 0
Plant response rating, Morningglory ([11]; Rate 250 g/ha, Postemergence): 7
Plant response rating, Morningglory ([11]; Rate 250 g/ha, Preemergence): 0
Plant response rating, Morningglory ([11]; Rate 500 g/ha, Postemergence): 7
Plant response rating, Morningglory ([11]; Rate 500 g/ha, Preemergence): 0
